According to patent publication US11337935B2, “Identification of stabilizers of multimeric proteins” (The Board of Trustees of the Leland Stanford Junior …, priority 2010, dated 2022):

Columns and labels:
[1] = molecular target: T1, TTR (Homo sapiens (Human), UniProt P02766); assay: Determination of IC50 using the FP assay (HTS format); type: binding; conditions: read-out: IC50 (50% decrease in the FP signal); repurchased top 33 hits, 10-point duplicate dose-response
[2] = molecular target: WT TTR (Homo sapiens (Human), UniProt P02766); assay: Acid-mediated fibril formation assay for TTR amyloidogenesis (turbidity); conditions: ligand 7.2 μM, TTR 3.6 μM, pH 4.4, 37° C., 72 h; no inhibitor = 100%
Method: The efficacy of each compound to inhibit TTR amyloidogenesis was determined by monitoring the turbidity of TTR aggregation at acidic pH, as described previously. […] The final 1 ml sample mixture was vortexed, then incubated at 37° C. for 72 hours, after which the sample was vortexed and the optical density was measured at 400 nm on a Beckman DU® 640 spectrophotometer. […] The optical density was also corrected for the absorption of all test compounds in the absence of TTR. […] The optical density (400 nm) was measured as described above at 0, 24, 48, 72, 96, and 120 hours. All assays were performed in triplicate and the average values obtained are presented.
TTR was preincubated with small molecules for 30 min at room temperature before amyloidosis was initiated (lowering pH to 4.4, incubation at 37° C.). […] The amyloidogenesis inhibition efficacy of each compound was determined by monitoring the turbidity of TTR (400 nm). The extent of TTR amyloidogenesis was quantitated at a fixed time point (72 h). All amyloid fibril formation data was normalized to TTR amyloidogenesis in the absence of inhibitor, assigned to be 100% fibril formation. […] The aggregation inhibition was monitored over 5 days using the acid-mediated fibril formation assay (compared to 3 days for the fixed time point described above) (FIG. 5B).

[3] = tested on: WT TTR cytotoxicity in human IMR-32 neuroblastoma cells; assay: Inhibition of WT TTR cytotoxicity; conditions: WT TTR and ligand 8 μM each, IMR-32, 24 h
Method: (§1) The human cardiac cell line AC16 was maintained in DMEM:F12 (1:1) supplemented with 10% FBS, 1 mM Hepes buffer, 2 mM L-glutamine, 100 units/mL penicillin and 100 μg/mL streptomycin. Two to 4-day-old cultures (˜70% confluent) were used for the experiments.
(§2) Recombinant WT TTR purified in the cold in HBSS (Mediatech, Manassas, Va.) was used as a cytotoxic insult to IMR-32 cells and the amyloidogenic V122I TTR was used as cytotoxic insult to cardiac AC16 cells. Candidate compounds (16 mM in DMSO) were diluted 1:1000 with WT TTR or V122I TTR (16 mM in HBSS, filter sterilized) or with HBSS only. The mixtures were vortexed and incubated for 24 h at 4° C. WT TTR or V122I TTR (16 mM in HBSS) containing the same amount of DMSO than TTR/candidate compound mixtures was prepared in parallel and incubated under the same conditions.
(§3) The neuroblastoma IMR-32 and the cardiac AC16 cells were seeded in black wall, clear bottom, tissue culture treated 96-well plates (Costar) at a density of 6,000 cells/well and 250 cells/well, respectively in Opti-mem supplemented with 5% FBS, 1 mM Hepes buffer, 2 mM L-glutamine, 100 units/mL penicillin and 100 μg/mL streptomycin, 0.05 mg/mL CaCl2 and incubated overnight at 37° C. The medium was then removed and replaced immediately by the TTR/compound or HBSS previously diluted 1:1 in Opti-mem supplemented with 0.8 mg/mL BSA, 2 mM Hepes buffer, 4 mM L-glutamine, 200 units/mL penicillin, 200 μg/mL streptomycin and 0.1 mg/mL CaCl2. The cells were incubated 24 h at 37° C. after which cell viability was measured.
(§4) Cell viability of the cells treated with TTR or TTR/candidate compound was evaluated by a resazurin reduction assay. Briefly, 10 μL/well of resazurin (500 mM, PBS) was added to each well and incubated for 2-3 h at 37° C. Viable cells reduce resazurin to the highly fluorescent resorufin dye, which is quantitated in a multiwell plate reader (Ex/Em 530/590 nm, Tecan Safire2, Austria). Cell viability was calculated as percentage of fluorescence relative to cells treated with vehicle only (100% viability) after subtraction of blank fluorescence (wells without cells). All experimental conditions were performed at least in six replicates. Averages and SEM corresponding to 2 independently performed experiments were calculated.
(§5) The compounds under study were pre-incubated with WT TTR or V122I TTR for 24 h at 4° C. at equimolar concentrations (8 μM) and added to IMR-32 cells or AC16 cells, respectively. Cell viability was measured after 24 h by a resazurin reduction assay. […] The percentage of viable cells was calculated relative to cells treated with vehicle only (cell culture media and DMSO)—which were assigned to be 100% viable.

[4] = tested on: V122I TTR cytotoxicity in human AC16 cardiac cells; assay: Inhibition of V122I TTR cytotoxicity; conditions: V122I TTR and ligand 8 μM each, AC16, 24 h
Method: as §1, §2, §3, §4, §5

[5] = molecular target: human wild type TTR (Homo sapiens (Human), UniProt P02766); assay: Isothermal titration calorimetry (ITC) of ligands against TTR; type: binding
Method: Calorimetric titrations were carried out on a VP-ITC calorimeter (MicroCal, Northhampton, Mass.). […] Prior to each titration, all samples were degassed for 10 minutes. The initial injection of 3.0 μL was followed by 30 injections of 8.0 μL each (25° C.) to the point that TTR was fully saturated with ligand. Integration of the thermogram after subtraction of blanks yielded a binding isotherm that was analyzed with MicroCal Origin 5.0 software.

[6] = molecular target: wild type biotinylated TTR (Homo sapiens (Human), UniProt P02766); assay: Surface plasmon resonance (SPR) assay on immobilized biotinylated TTR; type: binding
Method: To an ice-cold solution of TTR (20 μM) in PBS was added EZ-Link Sulfo-NHS-LC-Biotin at a ratio of ˜2:1 (biotin:TTR) (minimal biotinylation) and the solution was incubated at room temperature. After 1 hour, un-reacted biotin was removed by passing the sample over a fast (FPLC) desalting column (Superdex™ 75) equilibrated with PBS.
SPR measurements were performed at 25° C. using a Biacore T100 (GE Healthcare) instrument equilibrated in 1% DMSO in PBS as a running buffer. After pretreatment of the streptavidin-coated chip (Sensor Chop SA, Biacore), ˜4000 RU biotinylated TTR was immobilized on one channel leaving the second flow channel as a blank (streptavidin alone) control. For binding measurements, HTS hits were diluted in running buffer (1% DMSO/PBS) and different dilution series were flowed over the chip at 50 μL/min ([…], 600 s wash). A zero concentration sample was used as a negative control. The kinetic data was fitted to a one-to-one binding model using Biacore T100 evaluation software.

[7] = molecular target: T1, TTR; assay: FP saturation binding experiment; conditions: FITC alone
Method: The binding of probe 5 for TTR was evaluated as follows. […] The samples were allowed to equilibrate by agitation for 20 min at room temperature. Fluorescence polarization (excitation λ 485 nm, emission λ 525 nm, Cutoff λ 515 nm) measurements were taken using SpectraMax M5 Microplate Reader (Molecular Devices). […] Nonspecific FP, produced by the free fluorescent probe 5 as well as by binding of 5 to the plate, was equal to 70±10 mP.

Cc1ccc(Cl)c(Nc2ccccc2C(=O)O)c1Cl
IC50 [1]: 504 nM
% fibril formation [2]: 3.87 ± 0.93%

O=[N+]([O-])c1cc(O)c(O)c([N+](=O)[O-])c1 [3,5-dinitrocatechol, 3,5-dinitrocatechol, reference compound]
Prevention of TTR-induced cytotoxicity [3]: poor inhibitor
Prevention of TTR-induced cytotoxicity [4]: poor inhibitor

O=C(O)c1ccccc1Nc1cc(Cl)c(OCCOCCOCCNC(=S)Nc2ccc3c(c2)C(=O)OC32c3ccc(O)cc3Oc3cc(O)ccc32)c(Cl)c1 [Compound 5, 2-(3,5-dichloro-4-(2-(2-(2-(3-(3′,6′-dihydroxy-3-oxo-3H-spiro[isobenzofuran-1,9′-xanthene]-5-yl)thioureido)ethoxy)ethoxy)ethoxy)phenylamino)benzoic acid]
Decrease in binding affinity to TTR relative to 4 (fold) [5]: ~3 fold

Cc1n[nH]c(C)c1CCCOc1ccccc1F [Compound 7]
Prevention of TTR-induced cytotoxicity [3]: completely prevented
Prevention of TTR-induced cytotoxicity [4]: completely prevented

CN1C(=N)NC(=O)/C1=C/c1cc(Br)c(O)c(Br)c1 [Compound 14]
Prevention of TTR-induced cytotoxicity [3]: completely prevented
Prevention of TTR-induced cytotoxicity [4]: completely prevented

Cc1n[nH]c(C)c1CCc1nc2c3ccccc3[nH]c(=S)n2n1 [Compound 15]
Prevention of TTR-induced cytotoxicity [3]: completely prevented
Prevention of TTR-induced cytotoxicity [4]: completely prevented

O=C(O)Cc1ccccc1Nc1c(Cl)cccc1Cl [Diclofenac]
lower target residence time than 7 (fold) [6]: ~40 ×

O=C(O)c1cccnc1Nc1cccc(C(F)(F)F)c1 [Niflumic acid, niflumic acid, reference compound]
Prevention of TTR-induced cytotoxicity [4]: relatively poor inhibitor

O=C(c1cc(O)c(O)c([N+](=O)[O-])c1)c1ccccc1F [Ro 41-0960, reference compound]
Prevention of TTR-induced cytotoxicity [3]: completely prevented
Prevention of TTR-induced cytotoxicity [4]: completely prevented

O=C(O)Cc1ccccc1Nc1c(Cl)cccc1Cl [drawing 78]
IC50 [1]: 3740 nM
% fibril formation [2]: 11.56 ± 0.72%

Fluorescein isothiocyanate [FITC]
Interaction with TTR (change in FP signal upon addition of TTR) [7]: no interaction with TTR
